Patent US6656971B2, “Trisubstituted carbocyclic cyclophilin binding compounds and their use” (Guilford Pharmaceuticals Inc., priority 2001, dated 2003)

Columns and labels:
[1] = molecular target: T1, recombinant rat CyPA-GST fusion protein (Rattus norvegicus, UniProt P10111); test: Rotamase (PPIase) inhibition, chymotrypsin-coupled cuvette assay, rat CyPA-GST fusion protein; assay type: biochemical; conditions: Table A, value with asterisk: recombinant rat CyPA-GST fusion protein
T1 construct: made in house; host or cells: E. coli BL21

human recombinant CyPA = human recombinant CyPA (Homo sapiens, UniProt P62937); test: Rotamase (PPIase) inhibition, chymotrypsin-coupled cuvette assay, human recombinant CyPA; assay type: biochemical; conditions: Table A, value without asterisk: human recombinant CyPA
Description: A number of substrates for rotamase are known in the art or can be derived from those known. Typically, the substrate contacts a sample containing a protein with rotamase activity and the conversion of the substrate is detected after a period of time. The method for detecting conversion of the substrate will vary with the particular substrate chosen. One method has been termed the Ki test (See Harding, et al., Nature, 341:758-760 (1989); and Holt et al., J. Am. Chem. Soc., 115:9923-9938). The cis-trans isomerization of an alanine-proline bond in a model substrate, N-succinyl-Ala-Ala-Pro-Phe-p-nitroanilide (SEQ ID NO: 1), is monitored spectrophotometrically in a chymotrypsin-coupled assay. The action of chymotrypsin releases p-nitroaniline from only the trans form of the substrate. The amount of p-nitroaniline can be monitored in a spectrophotometer, for example. Other methods of detecting the presence of p-nitroaniline can also be used. The inhibition of this reaction caused by different concentrations of inhibitor is determined and the data are analyzed as a change in first-order rate constant as a function of inhibitor concentration, which yields the Ki value.
The following were added to a plastic cuvette: 950 μl of ice cold assay buffer (25 mM HEPES, pH 7.8, 100 mM NaCl), 10 μL of CyP A (2.5 μM in 10 mM Tris-Cl pH 7.5, 100 mM NaCl, 1 mM dithiothreitol), 25 μL of chymotrypsin (50 mg/ml in 1 mM HCl), and 10 μL of test compound, at various concentrations, in dimethyl sulfoxide. The reaction was initiated by the addition of 5 μL of substrate (succinyl-Ala-Phe-Pro-Phe-para-nitroanilide (SEQ ID NO: 1), 5 mg/mL in 470 mM LiCl in trifluoroethanol). The absorbance at 390 nm versus time was monitored for 90 seconds using a spectrophotometer and the rate constants were determined from the absorbance versus time data files.
The IC50 values which were obtained for representative compounds are given in the following Table A, and refer to the concentration that inhibits 50% of the rotamase activity in a sample.
(§1) The Cyclophilin utilized was a human recombinant CyPA, [Yoo et al., J. Mol. Biol., 269 (1997) 780-95].

[2] = molecular target: T1, recombinant rat CyPA-GST fusion protein; test: Semiautomated microtiter plate assay of rotamase activity inhibition, rat CyPA-GST fusion protein; assay type: biochemical; conditions: Table B, value with asterisk: recombinant rat CyPA-GST fusion protein
Method: as §1
The resulting fragment (573 base pairs) was cloned into pCRII and amplified. The CyP sequence was cut out with Sma1 and EcoR1 and cloned into the Sma1/EcoR1 sites in pGEX2TK (Pharmacia). This plasmid was transformed into BL21 E. coli cells for expression of the GST-CyPA fusion protein.
Rotamase inhibition was determined using a semiautomated microtiter plate assay modification of the above described assay [see Küllertz et al., Clin. Chem. 44, 502-508 (1998)]. All dilutions of CyPA, peptide substrate, and chymotrypsin were made in 35 mM ice-cold HEPES buffer. Fifty μL of CyPA solution is added to 50 μL of the peptide substrate solution (Phe-Pro-Phe p-nitroanilide, 0.16 mg/ml) in a glass microtiter well plate (the concentration of human recombinant CyP being adjusted so that the reaction rate is increased by a factor of 3 as compared to an uncatalyzed control reaction wherein the peptide substrate is degraded by chymotrypsin alone, in the absence of CyPA and test compound). Using a Beckman Multimek™ 96 automated 96-channel pipettor, 5 μL of test compound solution, or a DMSO blank, were added to each well for a 30 minute preincubation at 4° C. One hundred μL of chymotrypsin solution (1 mg/mL) were added to each well and the absorbance at 390 nm versus time was monitored for 9-10 minutes using a BioRad Ultramark plate reader maintained at 4° C. and the rate constants were determined from the absorbance versus time data files.
IC50 values which were obtained for representative compounds are presented in the following Table B. The cyclophilin utilized was a human recombinant CyPA. […] While CyP A was used in these examples, other CyP proteins can be substituted.

[3] = system: SMI-32 immunoreactive neurons of lumbar spinal cord slices; test: Neuroprotection assay in spinal cord slice preparations (THA-induced cell death); assay type: cell-based, Sprague-Dawley rat; conditions: THA 200 μM + compound 10 μM
Method: All cultures were derived from postnatal day 8 (P8) Sprague-Dawley rat lumbar spinal cord slices of 325 micrometer thickness, prepared using a commercially available McIlwain tissue chopper. Each experiment consisted of two 6-well plates with 5 slices from 4 different animals per well. Media changes were performed every 3 to 4 days. Cultures were treated with THA [L(−)-threo-3-hydroxyaspartic acid; Tocris Cookson Inc., Ballwin, Mo.] at 200 μM+compound (10 μM) after one week in culture. The control was an untreated sample with 0.1% DMSO as vehicle. The THA control was a THA treated sample with 0.1% DSMO as vehicle. Two wells were used per condition. One media change with new THA and compounds was performed. […]
Slices were permeabilized with 100% cold methanol for 10 minutes, subsequently washed 3×in 0.1M phosphate buffer and transferred to staining wells. […] Quantification of surviving neurons was performed on a Zeiss Axiovert microscope. Neuronal survival was determined by observing an intact neuronal cell body with processes located ventrally of the central canal in each hemisphere. […] Each hemisphere was counted individually. The statistics were performed with StatView™ software on a minimum of three different experiments per condition and significance was determined as compared to THA control. […]

T1 sequence (P10111 2-164): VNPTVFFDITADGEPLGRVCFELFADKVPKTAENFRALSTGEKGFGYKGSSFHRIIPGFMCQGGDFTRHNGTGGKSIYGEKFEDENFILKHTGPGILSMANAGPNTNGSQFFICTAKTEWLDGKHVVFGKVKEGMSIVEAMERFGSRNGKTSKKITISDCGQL
Sequence of human recombinant CyPA (P62937 whole entry): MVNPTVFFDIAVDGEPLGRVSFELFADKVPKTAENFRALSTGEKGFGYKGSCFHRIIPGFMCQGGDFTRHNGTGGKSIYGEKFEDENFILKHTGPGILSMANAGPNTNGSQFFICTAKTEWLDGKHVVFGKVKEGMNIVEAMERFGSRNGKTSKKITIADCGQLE

melting point [°C] | IC50 [1] [µM] | IC50 (human recombinant CyPA) [µM] | IC50 [2] [µM] | Compound | protection from THA-induced cell death [3] | SMI-32 immunoreactive neurons per ventral hemisphere ([3]; untreated control 26.4±4.2, THA control 18.97±2.04 (mean±standard error)) [cells/ventral hemisphere]
125 to 127 | 12 | 11.7 | 9.72 | O=C(Nc1cc(OCc2cccc3ccccc23)ccc1Br)c1cccc(C(F)(F)F)c1 [Compound 34, N-[2-bromo-5-(naphthylmethoxy)phenyl][3-(trifluoromethyl)phenyl]formamide] |  | 
 | 0.377 |  | 0.287 | O=C(Nc1ccc(Cl)c(Cl)c1)c1cc(OCc2ccccc2)cc(C(=O)Nc2ccc(Cl)c(Cl)c2)c1 [Compound 43] | complete protection | 28.14±2.4
